From ChEMBL document CHEMBL4145553, “Design, synthesis, and biological evaluation of novel amide and hydrazide based thioether analogs targeting Histone deacteylase (HDAC) enzymes” (Eur J Med Chem, 2018)

How the values were obtained:
MDA-MB-435 = experiment: Antiproliferative activity against human MDA-MB-435 cells after 24 hrs by MTT assay; format: functional
HL-60 = experiment: Antiproliferative activity against human HL60 cells after 24 hrs by MTT assay; format: functional

## CC(/C=C/C(=O)NO)=C\[C@@H](C)C(=O)c1ccc(N(C)C)cc1 [TRICHOSTATIN]
MDA-MB-435
  GI50: 1780 nM
HL-60
  GI50: 590 nM
